Measurements taken from the supplement of paper PMC10307832.

Columns and labels:
Test in all cases: relative viability (nuclei count vs DMSO), 5 days (fraction); higher = more cells survive
Motesanib + Lapatinib = compound: CC1(C)CNc2cc(NC(=O)c3cccnc3NCc3ccncc3)ccc21 [Motesanib] + CS(=O)(=O)CCNCc1ccc(-c2ccc3ncnc(Nc4ccc(OCc5cccc(F)c5)c(Cl)c4)c3c2)o1 [Lapatinib] (partner 2 µM)
How it was run: (§1)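 Cells from lung cancer lines were seeded into 1536-well plates and, one day later, dosed by pin tool. Treatments were either a single drug or a fixed dose of an anchor drug with five library-drug doses (not always all listed) in √10 steps. After 5 days, nuclei were stained in a one-step fixation (final 0.05% Triton X-100, 1% formaldehyde, 1 ug/ml Hoechst) and counted on 4× images, and relative viability is the treated-to-vehicle nuclei ratio, as the median of duplicate plates.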

Motesanib + Dasatinib = compound: CC1(C)CNc2cc(NC(=O)c3cccnc3NCc3ccncc3)ccc21 [Motesanib] + Cc1nc(Nc2ncc(C(=O)Nc3c(C)cccc3Cl)s2)cc(N2CCN(CCO)CC2)n1 [Dasatinib] (partner 0.075 µM)
How it was run: as §1

[1] = compound: C[C@@]1(C(=O)Nc2ccc(F)nc2)CCCN1c1nc(Nc2cc(C3CC3)n[nH]2)c2cccn2n1 + C[C@@H](Oc1cc(-c2cnn(C3CCNCC3)c2)cnc1N)c1c(Cl)ccc(F)c1Cl [Crizotinib] (partner 1 µM)
How it was run: as §1

[2] = compound: C[C@@]1(C(=O)Nc2ccc(F)nc2)CCCN1c1nc(Nc2cc(C3CC3)n[nH]2)c2cccn2n1 + O=C(c1cc(Cc2n[nH]c(=O)c3ccccc23)ccc1F)N1CCN(C(=O)C2CC2)CC1 [Olaparib] (partner 8 µM)
How it was run: as §1

Row | Cell Line | relative viability (Motesanib + Lapatinib; first compound 0.01 µM) | relative viability (Motesanib + Lapatinib; first compound 0.03162 µM) | relative viability (Motesanib + Lapatinib; first compound 0.1 µM) | relative viability (Motesanib + Lapatinib; first compound 0.3162 µM) | relative viability (Motesanib + Lapatinib; first compound 1 µM) | relative viability (Motesanib + Dasatinib; first compound 0.01 µM) | relative viability (Motesanib + Dasatinib; first compound 0.03162 µM) | relative viability (Motesanib + Dasatinib; first compound 0.1 µM) | relative viability (Motesanib + Dasatinib; first compound 0.3162 µM) | relative viability (Motesanib + Dasatinib; first compound 1 µM) | relative viability ([1]; first compound 0.04 µM) | relative viability ([1]; first compound 0.1265 µM) | relative viability ([1]; first compound 0.4 µM) | relative viability ([1]; first compound 1.265 µM) | relative viability ([2]; first compound 0.04 µM) | relative viability ([2]; first compound 0.1265 µM) | relative viability ([2]; first compound 0.4 µM) | relative viability ([2]; first compound 1.265 µM)
1 | HCC-366 | 0.913 | 1.08 | 1.06 | 1.13 | 1.06 | 0.666 | 0.553 | 0.552 | 0.631 | 0.808 | 0.612 | 0.442 | 0.388 | 0.0918 | 0.364 | 0.256 | 0.254 | 0.215
2 | HCC-827 | 0.198 | 0.191 | 0.172 | 0.224 | 0.192 | 0.308 | 0.307 | 0.293 | 0.274 | 0.228 | 0.897 | 0.899 | 0.901 | 0.9 | 0.663 | 0.769 | 0.55 | 0.716
3 | HOP-62 | 0.968 | 0.97 | 0.957 | 1.33 | 1.09 | 0.658 | 0.6 | 0.715 | 0.692 | 0.757 | 0.896 | 0.96 | 0.888 | 0.981 | 0.39 | 0.172 | 0.386 | 0.404
4 | IA-LM | 0.88 | 0.723 | 0.703 | 0.645 | 0.729 | – | – | – | – | – | 0.68 | 0.983 | 0.646 | 0.456 | 0.835 | 0.81 | 0.658 | 0.719
5 | LC-2-ad | 0.947 | 0.921 | 0.999 | 1.1 | 0.843 | 0.539 | 0.575 | 0.745 | 0.503 | 0.496 | 0.448 | 0.387 | 0.349 | 0.304 | 0.676 | 0.664 | 0.581 | 0.492
6 | LCLC-97TM1 | 1.04 | 0.96 | 0.688 | 1.09 | 0.967 | 0.838 | 0.801 | 0.797 | 0.86 | 0.773 | 0.184 | 0.186 | 0.12 | 0.187 | 0.142 | 0.133 | 0.1 | 0.229
7 | LCLC-103H | – | – | – | – | – | 0.432 | 0.444 | 0.44 | 0.504 | 0.52 | 1.07 | 1.01 | 0.904 | 1.04 | 0.716 | 0.655 | 0.518 | 0.762
8 | LK-2 | 0.784 | 1.19 | 0.78 | 1.04 | 0.901 | 0.322 | 0.212 | – | 0.379 | 0.245 | 0.208 | 0.335 | 0.224 | 0.159 | 0.38 | 0.287 | 0.29 | 0.35
9 | LOU-NH91 | 0.724 | 0.771 | 0.752 | 0.754 | 0.765 | 0.515 | 0.536 | 0.621 | 0.594 | 0.586 | 0.736 | 0.812 | 0.667 | 0.725 | 0.932 | 0.945 | 0.828 | 0.908
